Patent US6627664B2, “Perylenequinones for use as sonosensitizers” (Altachem Pharma Ltd., priority 2001, dated 2003)
Where two headings read alike, the source gives them in different places. Marks after values point to notes of the source that are not given here.

Legend:
[1] = test system: cells; details: for Photopotentiation Factor: LD50 dark divided by LD50 light; for LD50 Light: light dose not fixed, 0.75-1.0 J/cm2 of 630 nm light
Text: As used herein, “photopotentiation factor” refers to the property of the compound(s) to exert light- or sound-mediated toxicity in excess of its (their) inherent unactivated toxicity. […] Where the term “LD50” has been used above, the term “IC50” may be substituted, to address the bioassays that concern metabolic activity rather than the endpoint of lethality, loss of reproductive capability, or clonogenic death. The relative photoactivation efficiency of a compound may also be determined using a clonogenic assay, an assay that is well known to those skilled in the art.
In accordance with the present invention, a desirable PQP derivative is one that is non-toxic (or of low toxicity) at high drug concentrations without activation, i.e., without light (also referred to as “dark”), and/or without sound, and is toxic at low concentrations when light of the appropriate wavelength, or sound of the appropriate frequency, is applied. As is recognized by those skilled in the art, the most desirable compounds are those that provide a wide range of non-toxic doses in an unactivated state, as this characteristic provides an increased safety factor for the patient.

[2] = Singlet oxygen (1O2) yield; assay type: physicochemical
[3] = Light absorption properties (red spectral region, 630 nm); assay type: physicochemical; details: for A630: absorbance at 630 nm
[4] = Pharmacokinetics / tissue uptake of 14C-HB in tumor-bearing mice; assay type: in vivo, Balb/c mice
Text: The excellent fluorescence properties of the hypocrellins and derivatives provide a valuable tool to monitor intracellular uptake and distribution kinetics by confocal laser scanning microscopy (CLSM). Each drug has unique properties of uptake and distribution (Miller et al 1995 a, b). The rate cells take up drug in humans […] can be determined using similar protocols as Liu et al 1995 and Miller et al., 1995 a or b). In vivo, the ideal time between i.v. injection or administration of the drug and light administration is preferably when tumor concentration of the photodynamic agent is optimal with respect to normal tissues, typically up to about 24 hours, but as long as 48 hours or more (Table 2).
Pharmacokinetics of ^14C-HB in Balb/c mice bearing the EMT6/Ed tumor in one flank. […] With respect to skin, the optimal therapeutic ratio for tumor occurs 2 hours following drug administration.

For Ethanolamine-HB [HBEA-R2], the “Photopotentiation Factor” value [1] was 3.3, the “LD50 Light” value [1] was 7.5 µM and the “LD50 Dark” value ([1]; without light) was 25 µM. The “^1O2 Yield” value [2] was 0.70.
For Ethylenediamine-HB [HBED-R2], the “Photopotentiation Factor” value [1] was 5-8.3 and the “LD50 Light” value [1] was 3 to 5 µM.
For HA-Mg^++(Ac2), the “LD50 Dark” value [1] was over 25 µM, the “LD50 Light” value [1] was over 5 µM and the “^1O2 Yield” value [2] was 0.71. For the same substance, the “Abs. Peak in red Spectral region” value [3] was 616 nm, the “Extinction Coefficient (× 10^−3) (630 nm)” value (“Extinction Coefficient” for short) [3] was 4.47 × 10^−3 and the A630 [3] was 0.447. For the same substance, the Amax/solvent ([3]; solvent EtOH) was 0.958/EtOH.
In the case of HB-Mg^++, the “LD50 Dark” value [1] is reported as 10 µM, the “Photopotentiation Factor” value [1] is reported as 10 and the “LD50 Light” value [1] is reported as 1 µM. The “^1O2 Yield” value [2] was 0.53, the “Abs. Peak in red Spectral region” value [3] was 622 nm and the “Extinction Coefficient” value [3] was 5.27 × 10^−3. The A630 [3] was 0.527 and the Amax/solvent ([3]; solvent EtOH) was 0.604/EtOH.
For Hypocrellin A [HA, reference compound], the “Photopotentiation Factor” value [1] was 3-5, the “LD50 Light” value [1] was 3 to 5 µM and the “LD50 Dark” value ([1]; without light) was 15 µM. The “^1O2 Yield” value [2] was 0.84, the “Abs. Peak in red Spectral region” value [3] was 658* nm and the “Extinction Coefficient” value [3] was 0.86 × 10^−3. The A630 [3] was 0.086 and the Amax/solvent ([3]; solvent DMF) was 0.093/DMF.
In the case of Methylamine-HB [HBMA-IV], the “Photopotentiation Factor” value [1] is reported as 8.5 and the “LD50 Light” value [1] is reported as 1 µM.
For ^14C-Hypocrellin B, the clearance from blood ([4]; Balb/c mice bearing EMT6/Ed tumor) was “rapid clearance”, the “Tissue Uptake of ^14C-Hypocrellin B” value ([4]; Bone, 0 Hours) was 19,825 ± 2,300 dpm/g and the “Tissue Uptake of ^14C-Hypocrellin B” value ([4]; Bone, 2 Hours) was 3,955 ± 2,070 dpm/g. The “Tissue Uptake of ^14C-Hypocrellin B” value ([4]; Bone, 24 Hours) was 660 ± 215 dpm/g, the “Tissue Uptake of ^14C-Hypocrellin B” value ([4]; Bone, 48 Hours) was 1,125 ± 310 dpm/g and the “Tissue Uptake of ^14C-Hypocrellin B” value ([4]; Brain, 0 Hours) was 17,560 ± 560 dpm/g. The “Tissue Uptake of ^14C-Hypocrellin B” value ([4]; Brain, 2 Hours) was 3,855 ± 170 dpm/g, the “Tissue Uptake of ^14C-Hypocrellin B” value ([4]; Brain, 24 Hours) was 2,840 ± 275 dpm/g and the “Tissue Uptake of ^14C-Hypocrellin B” value ([4]; Brain, 48 Hours) was 845 ± 90 dpm/g. The “Tissue Uptake of ^14C-Hypocrellin B” value ([4]; Fat, 0 Hours) was 20,550 ± 715 dpm/g, the “Tissue Uptake of ^14C-Hypocrellin B” value ([4]; Fat, 2 Hours) was 38,570 ± 5,610 dpm/g and the “Tissue Uptake of ^14C-Hypocrellin B” value ([4]; Fat, 24 Hours) was 19,550 ± 2,210 dpm/g. The “Tissue Uptake of ^14C-Hypocrellin B” value ([4]; Fat, 48 Hours) was 19,335 ± 2,335 dpm/g, the “Tissue Uptake of ^14C-Hypocrellin B” value ([4]; Heart, 0 Hours) was 113,920 ± 3,365 dpm/g and the “Tissue Uptake of ^14C-Hypocrellin B” value ([4]; Heart, 2 Hours) was 5,135 ± 910 dpm/g. The “Tissue Uptake of ^14C-Hypocrellin B” value ([4]; Heart, 24 Hours) was 7,835 ± 1,810 dpm/g, the “Tissue Uptake of ^14C-Hypocrellin B” value ([4]; Heart, 48 Hours) was 2,325 ± 245 dpm/g and the “Tissue Uptake of ^14C-Hypocrellin B” value ([4]; Ileum, 0 Hours) was 45,400 ± 3,600 dpm/g. For the same substance, the “Tissue Uptake of ^14C-Hypocrellin B” value ([4]; Ileum, 2 Hours) was 20,280 ± 2,850 dpm/g, the “Tissue Uptake of ^14C-Hypocrellin B” value ([4]; Ileum, 24 Hours) was 5,800 ± 645 dpm/g and the “Tissue Uptake of ^14C-Hypocrellin B” value ([4]; Ileum, 48 Hours) was 2,840 ± 595 dpm/g. For the same substance, the “Tissue Uptake of ^14C-Hypocrellin B” value ([4]; Kidney, 0 Hours) was 67,344 ± 950 dpm/g, the “Tissue Uptake of ^14C-Hypocrellin B” value ([4]; Kidney, 2 Hours) was 20,855 ± 3,955 dpm/g and the “Tissue Uptake of ^14C-Hypocrellin B” value ([4]; Kidney, 24 Hours) was 12,050 ± 1,845 dpm/g. The “Tissue Uptake of ^14C-Hypocrellin B” value ([4]; Kidney, 48 Hours) was 4,535 ± 765 dpm/g, the “Tissue Uptake of ^14C-Hypocrellin B” value ([4]; Liver, 0 Hours) was 394,190 ± 7,540 dpm/g and the “Tissue Uptake of ^14C-Hypocrellin B” value ([4]; Liver, 2 Hours) was 24,620 ± 4,885 dpm/g. For the same substance, the “Tissue Uptake of ^14C-Hypocrellin B” value ([4]; Liver, 24 Hours) was 22,495 ± 4,440 dpm/g, the “Tissue Uptake of ^14C-Hypocrellin B” value ([4]; Liver, 48 Hours) was 9,215 ± 720 dpm/g and the “Tissue Uptake of ^14C-Hypocrellin B” value ([4]; Lung, 0 Hours) was 651,100 ± 42,668 dpm/g. For the same substance, the “Tissue Uptake of ^14C-Hypocrellin B” value ([4]; Lung, 2 Hours) was 8,580 ± 655 dpm/g, the “Tissue Uptake of ^14C-Hypocrellin B” value ([4]; Lung, 24 Hours) was 3870 ± 525 dpm/g and the “Tissue Uptake of ^14C-Hypocrellin B” value ([4]; Lung, 48 Hours) was 2,975 ± 360 dpm/g. For the same substance, the “Tissue Uptake of ^14C-Hypocrellin B” value ([4]; Muscle, 0 Hours) was 13,665 ± 600 dpm/g, the “Tissue Uptake of ^14C-Hypocrellin B” value ([4]; Muscle, 2 Hours) was 4,050 ± 940 dpm/g and the “Tissue Uptake of ^14C-Hypocrellin B” value ([4]; Muscle, 24 Hours) was 2,875 ± 560 dpm/g. For the same substance, the “Tissue Uptake of ^14C-Hypocrellin B” value ([4]; Muscle, 48 Hours) was 1,015 ± 205 dpm/g, the “Tissue Uptake of ^14C-Hypocrellin B” value ([4]; Pancreas, 0 Hours) was 32,010 ± 2,165 dpm/g and the “Tissue Uptake of ^14C-Hypocrellin B” value ([4]; Pancreas, 2 Hours) was 13,185 ± 12,055 dpm/g. The “Tissue Uptake of ^14C-Hypocrellin B” value ([4]; Pancreas, 24 Hours) was 32,390 ± 11,840 dpm/g, the “Tissue Uptake of ^14C-Hypocrellin B” value ([4]; Pancreas, 48 Hours) was 16,915 ± 3,845 dpm/g and the “Tissue Uptake of ^14C-Hypocrellin B” value ([4]; Serum, 0 Hours) was 69,975 ± 1,925 dpm/g. For the same substance, the “Tissue Uptake of ^14C-Hypocrellin B” value ([4]; Serum, 2 Hours) was 1,655 ± 170 dpm/g, the “Tissue Uptake of ^14C-Hypocrellin B” value ([4]; Serum, 24 Hours) was 1,020 ± 160 dpm/g and the “Tissue Uptake of ^14C-Hypocrellin B” value ([4]; Serum, 48 Hours) was 700 ± 240 dpm/g. For the same substance, the “Tissue Uptake of ^14C-Hypocrellin B” value ([4]; Skin, 0 Hours) was 14,970 ± 74 dpm/g, the “Tissue Uptake of ^14C-Hypocrellin B” value ([4]; Skin, 2 Hours) was 3,130 ± 221 dpm/g and the “Tissue Uptake of ^14C-Hypocrellin B” value ([4]; Skin, 24 Hours) was 2,700 ± 170 dpm/g. For the same substance, the “Tissue Uptake of ^14C-Hypocrellin B” value ([4]; Skin, 48 Hours) was 1,590 ± 250 dpm/g, the “Tissue Uptake of ^14C-Hypocrellin B” value ([4]; Spleen, 0 Hours) was 151,870 ± 9,395 dpm/g and the “Tissue Uptake of ^14C-Hypocrellin B” value ([4]; Spleen, 2 Hours) was 58,900 ± 4,205 dpm/g. The “Tissue Uptake of ^14C-Hypocrellin B” value ([4]; Spleen, 24 Hours) was 14,970 ± 3,215 dpm/g, the “Tissue Uptake of ^14C-Hypocrellin B” value ([4]; Spleen, 48 Hours) was 26,700 ± 11,105 dpm/g and the “Tissue Uptake of ^14C-Hypocrellin B” value ([4]; Stomach, 0 Hours) was 28,280 ± 145 dpm/g. The “Tissue Uptake of ^14C-Hypocrellin B” value ([4]; Stomach, 2 Hours) was 21,630 ± 3,345 dpm/g, the “Tissue Uptake of ^14C-Hypocrellin B” value ([4]; Stomach, 24 Hours) was 34,385 ± 8,795 dpm/g and the “Tissue Uptake of ^14C-Hypocrellin B” value ([4]; Stomach, 48 Hours) was 12,460 ± 975 dpm/g. The “Tissue Uptake of ^14C-Hypocrellin B” value ([4]; Tumor, 0 Hours) was 7,885 ± 270 dpm/g, the “Tissue Uptake of ^14C-Hypocrellin B” value ([4]; Tumor, 2 Hours) was 3,775 ± 400 dpm/g and the “Tissue Uptake of ^14C-Hypocrellin B” value ([4]; Tumor, 24 Hours) was 2,950 ± 80 dpm/g. The “Tissue Uptake of ^14C-Hypocrellin B” value ([4]; Tumor, 48 Hours) was 2,165 ± 470 dpm/g and the “time of optimal therapeutic ratio for tumor with respect to skin” value ([4]; following drug administration) was 2 h.
In the case of n-butylaminated HB [HBBA-R2], the “LD50 Dark” value [1] is reported as over 100 µM, the “Photopotentiation Factor” value [1] is reported as 167-500 and the “LD50 Light” value [1] is reported as 0.2 to 0.6 µM. The “cell killing with light” value ([1]; wavelengths between at least 630 and 688 nm) was “capable of killing cells”, the “^1O2 Yield” value [2] was 0.32 and the “Abs. Peak in red Spectral region” value [3] was 616* nm. The “Extinction Coefficient” value [3] was 6.19 × 10^−3, the A630 [3] was 0.619 and the Amax/solvent ([3]; solvent CHCl3) was 0.628/CHCl3.
